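Values below derive from 48-hour exposures of cells grown in 96-well plates, with endpoints linearly interpolated between the two concentrations bracketing the appropriate inhibition level. GI50 is the concentration that inhibits growth by half. TGI is the concentration that stops growth completely.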

Test systems include A549 NSCLC; COLO 205 colon; EKVX NSCLC; HCT-15 colon; MALME-3M melanoma; SF-268 CNS; SK-MEL-5 melanoma; T-47D breast; HL-60(TB) leukemia.
Holding throughout (assay): growth of human tumour cells (NCI), 48 h

With `Cc1cc(Cl)cc2c1NC(=O)C2(O)CC(=O)c1ccco1` (stereo not given), the TGI with A549 NSCLC is over 100 µM; with COLO 205 colon it was over 100 µM; in the assay on EKVX NSCLC, over 100 µM; in the assay with HCT-15 colon, over 100 µM; with MALME-3M melanoma, over 76.1 µM; in the assay with SF-268 CNS, over 100 µM. Besides, the TGI was 51.5 µM in the assay on SK-MEL-5 melanoma and over 100 µM in the assay with T-47D breast.

Take `CC1(C)OC2=C(CC1Br)C(=O)C(=O)c1ccccc12` (stereo not given): the GI50 with A549 NSCLC was 2.41 µM; in the assay with COLO 205 colon, 1.89 µM; in the assay on EKVX NSCLC it was 1.71 µM; with HL-60(TB) leukemia, 1.8 µM; in the assay on MALME-3M melanoma, 1.8 µM; in the assay on SF-268 CNS it was 1.75 µM. Besides, the GI50 with SK-MEL-5 melanoma was 1.53 µM; in the assay with T-47D breast, 2.03 µM. For the same molecule, the TGI in the assay on A549 NSCLC was determined as 4.87 µM; in the assay with COLO 205 colon, 3.39 µM; in the assay with EKVX NSCLC, 3.47 µM; in the assay on HL-60(TB) leukemia it was 4.57 µM; in the assay with MALME-3M melanoma, 3.52 µM; in the assay on SF-268 CNS, 3.32 µM. The values for the TGI with SK-MEL-5 melanoma and in the assay with T-47D breast were 2.89 µM and 4.72 µM, respectively.

For `CC(C)(CO)N1CCN(C(=S)Nc2ccccc2)CC1`, the TGI in the assay on A549 NSCLC, in the assay with COLO 205 colon, with EKVX NSCLC, with HCT-15 colon, in the assay with MALME-3M melanoma and in the assay on SF-268 CNS was over 100 µM throughout. For the same molecule, the TGI in the assay on SK-MEL-5 melanoma and in the assay on T-47D breast was over 100 µM in each case.

As for `O=S(=O)(NC1=NCCN1C(=S)SN1CCn2c1nsc2=S)c1cccc(Cl)c1`, the GI50 is 30.3 µM in the assay with A549 NSCLC; 7.48 µM with COLO 205 colon; 38.7 µM in the assay with EKVX NSCLC; 11.9 µM with HCT-15 colon; 13.1 µM in the assay on HL-60(TB) leukemia; 20.2 µM in the assay with SF-268 CNS. Besides, the values for the GI50 with SK-MEL-5 melanoma and with T-47D breast were 16.7 µM and 6.81 µM, respectively. In addition, the TGI is 91.2 µM with A549 NSCLC; 20.7 µM in the assay on COLO 205 colon; over 100 µM in the assay with EKVX NSCLC; 26.7 µM in the assay with HCT-15 colon; 80.5 µM with HL-60(TB) leukemia; 46.7 µM with SF-268 CNS. In addition, the TGI is 31.9 µM in the assay on SK-MEL-5 melanoma and 25.7 µM with T-47D breast.

`CCOC1Oc2ccc(C)cc2C(=O)/C1=C\Nc1ccc(C(N)=O)cc1` (stereo not given): the GI50 with A549 NSCLC was 33.3 µM; in the assay with COLO 205 colon, 8.52 µM; in the assay with EKVX NSCLC, 25.8 µM; in the assay on HCT-15 colon it was 11.4 µM; in the assay on SF-268 CNS it was 44 µM; in the assay with SK-MEL-5 melanoma it was 13.8 µM. Also, in the assay with T-47D breast, the GI50 was 6.13 µM. In addition, the TGI with A549 NSCLC is over 100 µM; with COLO 205 colon, over 100 µM; in the assay on EKVX NSCLC, 69 µM; with HCT-15 colon it was 30.6 µM; in the assay with SF-268 CNS, over 100 µM; in the assay on SK-MEL-5 melanoma, 30.2 µM. Further, in the assay on T-47D breast, the TGI was over 100 µM.

As for `COc1ccc(-c2nc(-c3nc4ccc(Cl)cc4[nH]3)c3ccccn23)cc1`, the GI50 in the assay with A549 NSCLC is 1.82 µM; with COLO 205 colon, 3.61 µM; in the assay with HCT-15 colon, 3.89 µM; with HL-60(TB) leukemia, 49.8 µM; with MALME-3M melanoma, 2.35 µM; with SF-268 CNS, 2.93 µM. Besides, the GI50 in the assay with SK-MEL-5 melanoma was 4.27 µM; with T-47D breast, 3.66 µM. The TGI with A549 NSCLC is 4.27 µM; in the assay on COLO 205 colon it was 13.3 µM; in the assay with HCT-15 colon it was 64.3 µM; with HL-60(TB) leukemia, over 100 µM; in the assay with MALME-3M melanoma it was 5.57 µM; in the assay on SF-268 CNS, 9.07 µM. In addition, the TGI with SK-MEL-5 melanoma was determined as 27.8 µM; in the assay with T-47D breast, 20.2 µM.

Regarding `CCCC1N2CCCCC2[C@@H]2c3[nH]c4ccccc4c3CCN12` (stereo not given in full), the TGI in the assay with A549 NSCLC, with COLO 205 colon, with EKVX NSCLC, with HCT-15 colon, in the assay with HL-60(TB) leukemia and in the assay with MALME-3M melanoma was over 100 µM in each case. For the same molecule, the TGI with SF-268 CNS and in the assay with SK-MEL-5 melanoma was over 100 µM in each case.

For `CCCn1c(=S)sc2c1nc(C)n1c(Nc3ccccc3)nnc21`, the GI50 in the assay on A549 NSCLC was 6.18 µM; with COLO 205 colon, 17 µM; in the assay with HCT-15 colon, 5.09 µM; with HL-60(TB) leukemia, 3.46 µM; in the assay on MALME-3M melanoma, 2.94 µM; in the assay with SK-MEL-5 melanoma, 3.31 µM. The GI50 with T-47D breast is 1.63 µM. Besides, the TGI in the assay on A549 NSCLC is over 100 µM; with COLO 205 colon, 47.3 µM; in the assay with HCT-15 colon it was over 100 µM; in the assay on HL-60(TB) leukemia, over 100 µM; with MALME-3M melanoma it was over 100 µM; in the assay with SK-MEL-5 melanoma, 11.2 µM. This molecule returned a TGI in the assay on T-47D breast of 8.25 µM.

As for `CC[C@@]1(c2ccccc2)C2=C(CC(C)(C)CC2=O)Nc2[nH]ncc21`, the GI50 with A549 NSCLC is over 100 µM; with COLO 205 colon, over 100 µM; in the assay on EKVX NSCLC, over 100 µM; in the assay on HCT-15 colon, 89 µM; with MALME-3M melanoma, over 100 µM; in the assay on SF-268 CNS, over 100 µM. The GI50 with SK-MEL-5 melanoma and in the assay on T-47D breast was over 100 µM throughout. For the same molecule, the TGI with A549 NSCLC, with COLO 205 colon, in the assay on EKVX NSCLC, in the assay with HCT-15 colon, with MALME-3M melanoma and in the assay on SF-268 CNS was over 100 µM in each case. Also, the TGI with SK-MEL-5 melanoma and in the assay on T-47D breast was over 100 µM throughout.

Turning to `CCCCCCCC(=O)OCC/C=C/C1OC1C1OC(=O)/C=C\C=C\c2nc(oc2C)/C=C(/C)CCC2OC2C1OC(=O)NC(C)=O` (stereo not given), the GI50 is 0.026 µM with A549 NSCLC; 0.0581 µM with COLO 205 colon; 0.0419 µM in the assay with EKVX NSCLC; 0.0558 µM in the assay with HCT-15 colon; 0.114 µM with HL-60(TB) leukemia; 0.0401 µM with SF-268 CNS. The figures for the GI50 with SK-MEL-5 melanoma and with T-47D breast were 0.0248 µM and 0.042 µM, respectively. Also, the TGI with A549 NSCLC worked out at 2.64 µM; in the assay on COLO 205 colon, 0.193 µM; in the assay on EKVX NSCLC it was 1.64 µM; in the assay with HCT-15 colon it was 8.88 µM; in the assay with HL-60(TB) leukemia it was 2.07 µM; with SF-268 CNS it was 1.74 µM. Also, the TGI in the assay on SK-MEL-5 melanoma came to 0.0688 µM; in the assay with T-47D breast, 0.161 µM.

Regarding `N#CSC1CCCCNC1=O` (stereo not given), the TGI in the assay on A549 NSCLC was 60 µM; in the assay with COLO 205 colon, 30.2 µM; in the assay on EKVX NSCLC it was 37.5 µM; with HCT-15 colon it was 28.6 µM; in the assay on HL-60(TB) leukemia, 87.4 µM; in the assay on MALME-3M melanoma, 31.4 µM. Further, the TGI in the assay on SF-268 CNS amounted to 26.2 µM; with T-47D breast, 52.5 µM.

Values taken from PubChem BioAssay (NCI).
